Test results from BindingDB's records for PubMed 7616392 (Sanofi Recherche, 1995).

Target: T1, Neuromedin-K receptor (Homo sapiens, UniProt P29371)
T1 sequence (P29371 whole entry): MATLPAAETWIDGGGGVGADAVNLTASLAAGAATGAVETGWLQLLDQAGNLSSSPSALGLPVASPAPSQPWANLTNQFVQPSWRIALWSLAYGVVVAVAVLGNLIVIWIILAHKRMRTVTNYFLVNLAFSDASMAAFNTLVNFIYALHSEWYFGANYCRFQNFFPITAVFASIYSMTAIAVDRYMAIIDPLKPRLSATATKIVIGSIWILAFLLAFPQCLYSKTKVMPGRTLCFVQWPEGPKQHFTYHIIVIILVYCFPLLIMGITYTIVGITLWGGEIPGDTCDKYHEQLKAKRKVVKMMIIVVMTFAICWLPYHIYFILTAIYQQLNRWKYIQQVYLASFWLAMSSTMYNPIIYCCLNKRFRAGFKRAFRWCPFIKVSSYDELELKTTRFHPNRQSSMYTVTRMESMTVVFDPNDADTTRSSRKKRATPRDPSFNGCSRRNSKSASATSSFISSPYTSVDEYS

Structure (SMILES)	Ki
CC(=O)NC1(c2ccccc2)CCN(CCC(CN(C)C(=O)c2ccccc2)c2ccc(Cl)c(Cl)c2)CC1 (configuration not stated) [SR 48968]	368 nM
CC(C)Oc1cccc(CC(=O)N2CCC[C@](CC[N+]34CCC(c5ccccc5)(CC3)CC4)(c3ccc(Cl)c(Cl)c3)C2)c1	1080 nM
